Assay results taken from ChEMBL document CHEMBL4507270 (2021).

Tests used:
[1] = target: Epithelial discoidin domain-containing receptor 1 (Homo sapiens, UniProt Q08345)
[2] = target: Calcium/calmodulin-dependent protein kinase kinase 1 (Homo sapiens) (UniProt Q8N5S9)
[3] = target: Tyrosine-protein kinase Lck (Homo sapiens) (UniProt P06239)
[4] = target: Serine/threonine-protein kinase 38-like (Homo sapiens) (UniProt Q9Y2H1)
[5] = target: Serine/threonine-protein kinase 4 (Homo sapiens) (UniProt Q13043)
[6] = target: SRSF protein kinase 1 (Homo sapiens) (UniProt Q96SB4)
[7] = target: Cyclin-dependent kinase 13 (Homo sapiens) (UniProt Q14004)
[8] = target: G protein-coupled receptor kinase 3 (Homo sapiens) (UniProt P35626)
[9] = target: Muscle, skeletal receptor tyrosine-protein kinase (Homo sapiens) (UniProt O15146)
[10] = test system: Fibroblast growth factor receptor 3 (Homo sapiens), P22607 [G697C]
[11] = test system: Phosphatidylinositol 4,5-bisphosphate 3-kinase catalytic subunit alpha isoform (Homo sapiens), P42336 [Q546K]
[12] = target: Serine/threonine-protein kinase BRSK2 (Homo sapiens) (UniProt Q8IWQ3)
[13] = target: Mitogen-activated protein kinase 7 (Homo sapiens) (UniProt Q13164)
[14] = target: Serine/threonine-protein kinase PLK4 (Homo sapiens) (UniProt O00444)
[15] = target: Discoidin domain-containing receptor 2 (Homo sapiens) (UniProt Q16832)
[16] = target: STE20/SPS1-related proline-alanine-rich protein kinase (Homo sapiens) (UniProt Q9UEW8)
[17] = target: Serine/threonine-protein kinase SBK1 (Homo sapiens) (UniProt Q52WX2)
[18] = target: Serine/threonine-protein kinase LATS1 (Homo sapiens) (UniProt O95835)
[19] = target: cGMP-dependent protein kinase 1 (Homo sapiens) (UniProt Q13976)
[20] = target: Calcium/calmodulin-dependent protein kinase type II subunit beta (Homo sapiens) (UniProt Q13554)
[21] = target: cAMP-dependent protein kinase catalytic subunit PRKX (Homo sapiens) (UniProt P51817)
[22] = target: Cyclin-G-associated kinase (Homo sapiens) (UniProt O14976)
[23] = target: Atypical kinase COQ8A, mitochondrial (Homo sapiens) (UniProt Q8NI60)
[24] = target: Myosin-IIIa (Homo sapiens) (UniProt Q8NEV4)
[25] = target: Serine/threonine-protein kinase pim-3 (Homo sapiens) (UniProt Q86V86)
[26] = target: 5-hydroxytryptamine receptor 3A (Homo sapiens) (UniProt P46098); details: Compound concentration 10.0 uM
[27] = target: Serine/threonine-protein kinase SIK2 (Homo sapiens) (UniProt Q9H0K1)
[28] = target: RAC-beta serine/threonine-protein kinase (Homo sapiens) (UniProt P31751)
[29] = target: Receptor-interacting serine/threonine-protein kinase 1 (Homo sapiens) (UniProt Q13546)
[30] = GPCRScan assay: inhibition of GABA/PBR; set-up: species or system Rattus norvegicus; radioligand conc. used [nm] 0.3 – 2.0, parental cells brain tissue
[31] = test system: Receptor-type tyrosine-protein kinase FLT3 (Homo sapiens), P36888 [K663Q]
[32] = target: Serine/threonine-protein kinase tousled-like 1 (Homo sapiens) (UniProt Q9UKI8)
[33] = target: MAP kinase-activated protein kinase 5 (Homo sapiens) (UniProt Q8IW41)
[34] = target: Calcium/calmodulin-dependent protein kinase type 1D (Homo sapiens) (UniProt Q8IU85)
[35] = target: 5-hydroxytryptamine receptor 1A (Homo sapiens) (UniProt P08908); details: Compound concentration 10.0 uM
[36] = target: Activin receptor type-2A (Homo sapiens) (UniProt P27037)
[37] = target: Cyclin-dependent kinase 14 (Homo sapiens) (UniProt O94921)
[38] = target: Mitogen-activated protein kinase 8 (Homo sapiens) (UniProt P45983)
[39] = target: Phosphatidylinositol 4-phosphate 5-kinase type-1 gamma (Homo sapiens) (UniProt O60331)
[40] = target: GABA-A receptor; anion channel (Rattus norvegicus) (UniProt O09028+P15431+P18506+P18508+P19969+P20236+P23574+P23576+P28471+P28473+P30191+P62813+P63079+P63138+Q91ZM7+Q9ES14); details: Compound concentration 10.0 uM
[41] = target: Glycogen synthase kinase-3 beta (Homo sapiens) (UniProt P49841)
[42] = target: Phosphatidylinositol 3-kinase catalytic subunit type 3 (Homo sapiens) (UniProt Q8NEB9)
[43] = target: Serine/threonine-protein kinase TAO3 (Homo sapiens) (UniProt Q9H2K8)
[44] = target: Ephrin type-A receptor 3 (Homo sapiens) (UniProt P29320)
[45] = Compound concentration 1000.0 nM
[46] = Compound concentration 100.0 nM

Sequence of Mitogen-activated protein kinase 8 (Homo sapiens) (P45983 whole entry): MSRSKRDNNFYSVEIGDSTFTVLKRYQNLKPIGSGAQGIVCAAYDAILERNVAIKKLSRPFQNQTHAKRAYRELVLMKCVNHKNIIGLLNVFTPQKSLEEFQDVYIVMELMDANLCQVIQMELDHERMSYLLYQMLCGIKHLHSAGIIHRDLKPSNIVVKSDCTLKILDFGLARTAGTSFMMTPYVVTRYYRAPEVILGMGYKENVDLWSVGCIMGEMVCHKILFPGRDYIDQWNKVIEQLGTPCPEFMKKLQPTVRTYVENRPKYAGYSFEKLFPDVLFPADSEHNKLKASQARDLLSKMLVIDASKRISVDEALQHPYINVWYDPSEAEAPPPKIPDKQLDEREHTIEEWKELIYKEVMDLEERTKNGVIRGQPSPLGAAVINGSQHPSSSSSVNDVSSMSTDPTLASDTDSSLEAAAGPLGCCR
Sequence of Serine/threonine-protein kinase SBK1 (Homo sapiens) (Q52WX2 whole entry): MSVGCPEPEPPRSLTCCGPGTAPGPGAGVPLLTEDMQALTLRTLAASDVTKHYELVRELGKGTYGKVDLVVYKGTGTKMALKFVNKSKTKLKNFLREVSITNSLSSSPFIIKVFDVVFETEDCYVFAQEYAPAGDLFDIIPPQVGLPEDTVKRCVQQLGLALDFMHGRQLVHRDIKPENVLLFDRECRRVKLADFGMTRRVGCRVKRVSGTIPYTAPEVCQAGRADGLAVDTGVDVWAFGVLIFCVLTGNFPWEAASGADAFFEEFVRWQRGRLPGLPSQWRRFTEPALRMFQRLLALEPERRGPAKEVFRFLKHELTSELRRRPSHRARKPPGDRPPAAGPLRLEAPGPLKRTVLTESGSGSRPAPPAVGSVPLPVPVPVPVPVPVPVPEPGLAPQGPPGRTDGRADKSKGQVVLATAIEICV
Sequence of RAC-beta serine/threonine-protein kinase (Homo sapiens) (P31751 whole entry): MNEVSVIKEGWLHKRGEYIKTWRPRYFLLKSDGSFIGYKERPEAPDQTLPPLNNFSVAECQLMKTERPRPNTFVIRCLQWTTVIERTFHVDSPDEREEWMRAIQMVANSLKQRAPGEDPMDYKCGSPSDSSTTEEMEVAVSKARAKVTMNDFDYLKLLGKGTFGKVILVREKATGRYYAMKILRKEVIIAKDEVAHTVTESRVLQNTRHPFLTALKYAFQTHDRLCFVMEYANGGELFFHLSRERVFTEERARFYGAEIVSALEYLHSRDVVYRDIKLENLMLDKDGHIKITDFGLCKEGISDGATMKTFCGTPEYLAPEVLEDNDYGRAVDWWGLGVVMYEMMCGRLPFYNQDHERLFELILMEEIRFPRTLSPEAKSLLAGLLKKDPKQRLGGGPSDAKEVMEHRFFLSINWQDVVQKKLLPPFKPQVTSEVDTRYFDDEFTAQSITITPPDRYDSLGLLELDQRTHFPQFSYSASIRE
Sequence of Serine/threonine-protein kinase 38-like (Homo sapiens) (Q9Y2H1 2-464 limits assumed): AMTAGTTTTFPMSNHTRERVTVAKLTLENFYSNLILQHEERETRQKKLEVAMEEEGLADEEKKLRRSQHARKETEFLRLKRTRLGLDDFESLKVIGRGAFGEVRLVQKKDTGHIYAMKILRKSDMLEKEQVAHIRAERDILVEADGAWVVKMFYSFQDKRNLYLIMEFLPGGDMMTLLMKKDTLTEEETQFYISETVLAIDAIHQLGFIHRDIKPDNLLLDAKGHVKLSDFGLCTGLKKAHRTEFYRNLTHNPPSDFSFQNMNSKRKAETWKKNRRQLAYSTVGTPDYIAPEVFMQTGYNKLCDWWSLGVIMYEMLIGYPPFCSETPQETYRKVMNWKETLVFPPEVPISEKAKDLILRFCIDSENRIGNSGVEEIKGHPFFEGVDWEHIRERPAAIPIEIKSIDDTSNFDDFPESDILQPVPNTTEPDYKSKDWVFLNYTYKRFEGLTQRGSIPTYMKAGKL
Sequence of Calcium/calmodulin-dependent protein kinase type 1D (Homo sapiens) (Q8IU85 whole entry, looked up): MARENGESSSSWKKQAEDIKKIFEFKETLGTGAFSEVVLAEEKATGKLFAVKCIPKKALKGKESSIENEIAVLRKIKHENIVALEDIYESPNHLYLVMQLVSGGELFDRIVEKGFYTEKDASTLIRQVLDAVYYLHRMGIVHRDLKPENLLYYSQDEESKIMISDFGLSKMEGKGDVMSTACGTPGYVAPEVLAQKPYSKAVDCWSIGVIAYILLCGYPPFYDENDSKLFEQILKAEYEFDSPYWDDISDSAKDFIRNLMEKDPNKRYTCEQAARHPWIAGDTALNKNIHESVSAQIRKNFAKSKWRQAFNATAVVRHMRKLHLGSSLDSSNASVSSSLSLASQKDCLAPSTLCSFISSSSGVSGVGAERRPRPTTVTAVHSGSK
Sequence of Serine/threonine-protein kinase PLK4 (Homo sapiens) (O00444 whole entry, the tested form may be a part): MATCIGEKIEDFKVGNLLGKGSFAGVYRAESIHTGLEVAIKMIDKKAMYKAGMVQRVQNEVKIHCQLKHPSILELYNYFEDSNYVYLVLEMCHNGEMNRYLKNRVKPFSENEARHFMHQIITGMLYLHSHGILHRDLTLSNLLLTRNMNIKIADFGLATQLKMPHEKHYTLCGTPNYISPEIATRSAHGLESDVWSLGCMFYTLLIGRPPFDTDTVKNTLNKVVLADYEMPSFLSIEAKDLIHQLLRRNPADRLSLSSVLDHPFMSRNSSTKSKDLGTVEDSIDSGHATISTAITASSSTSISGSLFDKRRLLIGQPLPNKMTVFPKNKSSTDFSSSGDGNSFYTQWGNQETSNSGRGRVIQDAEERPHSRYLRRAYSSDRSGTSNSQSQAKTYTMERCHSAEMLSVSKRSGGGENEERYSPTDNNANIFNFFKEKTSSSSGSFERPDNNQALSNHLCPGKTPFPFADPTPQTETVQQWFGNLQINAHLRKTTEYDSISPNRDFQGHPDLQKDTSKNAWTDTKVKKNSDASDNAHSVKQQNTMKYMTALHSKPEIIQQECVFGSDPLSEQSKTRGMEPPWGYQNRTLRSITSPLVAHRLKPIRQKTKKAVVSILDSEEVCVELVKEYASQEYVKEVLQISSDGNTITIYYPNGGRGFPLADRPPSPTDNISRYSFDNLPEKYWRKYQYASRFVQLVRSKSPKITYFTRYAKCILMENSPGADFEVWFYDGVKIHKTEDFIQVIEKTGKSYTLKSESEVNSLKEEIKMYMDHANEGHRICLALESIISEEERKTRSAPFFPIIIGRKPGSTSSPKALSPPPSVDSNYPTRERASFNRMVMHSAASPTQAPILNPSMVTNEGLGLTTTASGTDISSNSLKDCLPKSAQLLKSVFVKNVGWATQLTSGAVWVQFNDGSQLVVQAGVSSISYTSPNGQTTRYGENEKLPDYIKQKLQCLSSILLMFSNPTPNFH
Sequence of G protein-coupled receptor kinase 3 (Homo sapiens) (P35626 whole entry): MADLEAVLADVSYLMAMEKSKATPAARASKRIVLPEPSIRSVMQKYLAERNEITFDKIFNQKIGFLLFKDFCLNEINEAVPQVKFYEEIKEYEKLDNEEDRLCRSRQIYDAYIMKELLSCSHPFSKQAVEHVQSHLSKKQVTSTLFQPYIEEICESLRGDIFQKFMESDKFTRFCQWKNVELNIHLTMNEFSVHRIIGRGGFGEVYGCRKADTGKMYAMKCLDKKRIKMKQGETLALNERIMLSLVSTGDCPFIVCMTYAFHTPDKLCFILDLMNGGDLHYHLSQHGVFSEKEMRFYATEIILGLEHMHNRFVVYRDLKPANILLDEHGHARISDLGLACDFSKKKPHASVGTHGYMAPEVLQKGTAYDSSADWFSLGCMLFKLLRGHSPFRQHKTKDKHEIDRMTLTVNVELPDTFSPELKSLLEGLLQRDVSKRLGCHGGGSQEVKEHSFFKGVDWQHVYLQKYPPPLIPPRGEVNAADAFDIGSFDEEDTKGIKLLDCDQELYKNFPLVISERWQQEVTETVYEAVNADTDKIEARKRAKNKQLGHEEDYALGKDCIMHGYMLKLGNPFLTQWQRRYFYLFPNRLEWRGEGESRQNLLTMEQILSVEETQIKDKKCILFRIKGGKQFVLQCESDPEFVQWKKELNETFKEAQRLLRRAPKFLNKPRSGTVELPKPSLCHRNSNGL
Sequence of Serine/threonine-protein kinase SIK2 (Homo sapiens) (Q9H0K1 whole entry, looked up): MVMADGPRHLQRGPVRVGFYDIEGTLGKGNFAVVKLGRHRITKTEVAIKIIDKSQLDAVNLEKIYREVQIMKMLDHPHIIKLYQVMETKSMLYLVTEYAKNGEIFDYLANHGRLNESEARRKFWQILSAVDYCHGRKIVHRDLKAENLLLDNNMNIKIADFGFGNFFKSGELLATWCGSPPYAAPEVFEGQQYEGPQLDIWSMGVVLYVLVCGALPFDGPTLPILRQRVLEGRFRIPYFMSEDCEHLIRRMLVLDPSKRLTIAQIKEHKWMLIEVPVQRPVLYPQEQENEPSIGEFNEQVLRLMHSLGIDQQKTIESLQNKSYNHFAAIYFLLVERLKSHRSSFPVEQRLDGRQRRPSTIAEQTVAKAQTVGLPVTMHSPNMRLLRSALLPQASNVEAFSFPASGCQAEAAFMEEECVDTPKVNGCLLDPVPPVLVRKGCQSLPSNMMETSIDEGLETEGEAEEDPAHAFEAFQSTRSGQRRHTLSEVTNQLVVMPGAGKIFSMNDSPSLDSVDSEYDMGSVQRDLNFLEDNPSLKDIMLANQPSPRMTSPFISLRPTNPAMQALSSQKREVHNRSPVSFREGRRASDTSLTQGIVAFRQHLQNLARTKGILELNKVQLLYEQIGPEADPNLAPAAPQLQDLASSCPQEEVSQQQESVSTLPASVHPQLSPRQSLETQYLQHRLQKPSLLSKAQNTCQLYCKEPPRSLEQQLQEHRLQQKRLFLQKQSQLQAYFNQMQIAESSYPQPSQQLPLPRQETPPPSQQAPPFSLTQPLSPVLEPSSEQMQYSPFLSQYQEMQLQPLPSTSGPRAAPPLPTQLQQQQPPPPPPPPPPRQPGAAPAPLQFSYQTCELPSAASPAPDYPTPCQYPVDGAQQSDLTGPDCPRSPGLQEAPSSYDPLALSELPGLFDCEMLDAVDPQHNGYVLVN

## Cc1cc(NC(=O)c2cccc(S(F)(F)(F)(F)F)c2)cc(-n2ccn3nc(-c4cccnc4)cc23)c1 [BAY-309]
[1]; [45]
  residual activity: 0%
[2]; [45]
  residual activity: 100%
[3]; [45]
  residual activity: 96.6%
[4]; [45]
  residual activity: 100%
[5]; [45]
  residual activity: 100%
[6]; [45]
  residual activity: 100%
[7]; [45]
  residual activity: 64.2%
[8]; [45]
  residual activity: 74.8%
[9]; [45]
  residual activity: 82%
[10]; [45]
  residual activity: 100%
[11]; [45]
  residual activity: 100%
[12]; [45]
  residual activity: 100%
[13]; [45]
  residual activity: 90%
[14]; [45]
  residual activity: 96.9%
[15]; [45]
  residual activity: 18.2%
[16]; [45]
  residual activity: 100%
[17]; [45]
  residual activity: 100%
[18]; [45]
  residual activity: 100%
[19]; [45]
  residual activity: 100%
[20]; [45]
  residual activity: 100%
[21]; [45]
  residual activity: 100%
[22]; [45]
  residual activity: 100%
[23]; [45]
  residual activity: 82.8%
[24]; [45]
  residual activity: 100%
[25]; [45]
  residual activity: 100%
[26]
  inhibition: -8.73%
[27]; [45]
  residual activity: 100%
[28]; [45]
  residual activity: 82.5%
[29]; [45]
  residual activity: 80.7%
[30]
  Ki: 10.9 nM
  pKi: 8.03
[31]; [45]
  residual activity: 100%
[32]; [45]
  residual activity: 100%
[33]; [45]
  residual activity: 100%
[34]; [45]
  residual activity: 94.9%
[35]
  inhibition: 39.9%
[36]; [45]
  residual activity: 100%
[37]; [45]
  residual activity: 93.8%
[38]; [45]
  residual activity: 55.9%
[39]; [45]
  residual activity: 100%
[40]
  inhibition: -4.43%
[41]; [45]
  residual activity: 85.4%
[42]; [45]
  residual activity: 76.6%
[43]; [45]
  residual activity: 100%
[44]; [45]
  residual activity: 100%

## Cc1cc(C)c(-n2ccn3nc(-c4cccnc4)cc23)cc1NC(=O)c1cc(C#N)cc(S(F)(F)(F)(F)F)c1 [BAY-826]
[1]; [46]
  residual activity: 0.1%
[2]; [46]
  residual activity: 93.6%
[3]; [46]
  residual activity: 41.6%
[4]; [46]
  residual activity: 98.9%
[5]; [46]
  residual activity: 88.5%
[6]; [46]
  residual activity: 67.4%
[7]; [46]
  residual activity: 59%
[8]; [46]
  residual activity: 90.6%
[9]; [46]
  residual activity: 78.6%
[10]; [46]
  residual activity: 100%
[11]; [46]
  residual activity: 100%
[12]; [46]
  residual activity: 97.5%
[13]; [46]
  residual activity: 100%
[14]; [46]
  residual activity: 64.1%
[15]; [46]
  residual activity: 1.8%
[16]; [46]
  residual activity: 64.6%
[17]; [46]
  residual activity: 82.2%
[18]; [46]
  residual activity: 83.9%
[19]; [46]
  residual activity: 100%
[20]; [46]
  residual activity: 87.5%
[21]; [46]
  residual activity: 68.5%
[22]; [46]
  residual activity: 83.3%
[23]; [46]
  residual activity: 94.5%
[24]; [46]
  residual activity: 94.9%
[25]; [46]
  residual activity: 83.1%
[26]
  inhibition: 18.4%
[27]; [46]
  residual activity: 94.2%
[28]; [46]
  residual activity: 88.4%
[29]; [46]
  residual activity: 91.5%
[30]
  Ki: 217 nM
[31]; [46]
  residual activity: 100%
[32]; [46]
  residual activity: 89.1%
[33]; [46]
  residual activity: 91.7%
[34]; [46]
  residual activity: 71.6%
[35]
  inhibition: -6.68%
[36]; [46]
  residual activity: 100%
[37]; [46]
  residual activity: 100%
[38]; [46]
  residual activity: 76.8%
[39]; [46]
  residual activity: 70.2%
[40]
  inhibition: -6.93%
[41]; [46]
  residual activity: 85.9%
[42]; [46]
  residual activity: 84.9%
[43]; [46]
  residual activity: 47.1%
[44]; [46]
  residual activity: 89.8%
